According to patent publication US10118922B2 (Janssen Pharmaceutica NV, priority 2013, dated 2018):

Target: T1, long form of human GPR120 (Homo sapiens, UniProt Q5NUL3)
T1 construct: host or cells: PathHunter CHO-K1 GPR120 β-Arrestin Cell Line
T1 sequence (Q5NUL3 1-377 isoform Q5NUL3-1): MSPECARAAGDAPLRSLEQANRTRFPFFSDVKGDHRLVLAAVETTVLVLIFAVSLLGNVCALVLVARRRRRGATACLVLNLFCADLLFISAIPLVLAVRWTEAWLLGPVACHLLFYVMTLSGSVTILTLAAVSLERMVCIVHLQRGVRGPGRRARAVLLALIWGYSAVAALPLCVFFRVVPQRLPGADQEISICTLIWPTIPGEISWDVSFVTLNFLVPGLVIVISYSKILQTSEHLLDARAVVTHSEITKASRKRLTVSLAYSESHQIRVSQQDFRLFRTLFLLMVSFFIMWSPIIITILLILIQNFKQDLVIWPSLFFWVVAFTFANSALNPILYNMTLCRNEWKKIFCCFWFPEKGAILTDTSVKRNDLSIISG
Test: Human GPR120 DiscoveRx PathHunter beta-arrestin assay, Procedure β-arrestin A
Assay type: cell-based
Conditions: PathHunter CHO-K1 GPR120 β-Arrestin cells, 3000 cells per well; read-out: hGPR120 β-arrestin A EC50
Excerpt: The binding of an agonist (medium/long chain fatty acids or small molecule agonists) to the G-protein-coupled receptor GPR120 activates phospholipase C, leading to release of intracellular Ca^+2 through the generation of inositol 1,4,5-trisphosphate (InsP3 or IP3). GPR120 activation can also trigger intracellular signaling via recruitment of Beta-Arrestin. In the present method, agonist-induced activation of the human GPR120 receptor is monitored through the use of PathHunter CHO-K1 GPR120 Beta-Arrestin Cell Line engineered by DiscoveRx, as detailed below. The cell lines are designed to co-express both the ProLink/Enzyme Donor (PK)-tagged GPCR and the Enzyme […] (EA)-tagged Beta-Arrestin fusion proteins. Upon GPR120 receptor stimulation/activation, the EA-tagged Beta-Arrestin portion is translocated to the tagged receptor, where the two enzyme fragments are brought within close proximity. Under these conditions, these fragments can interact and form an active Beta-gal enzyme complex through Enzyme Fragment Complementation (EFC). […] This in vitro assay therefore serves to assess compound agonist activity of the GPR120.
In Procedure β-arrestin A, the cell used were PathHunter CHO-K1 GPR120 β-Arrestin Cell Line, expressing the long form of human GPR120 (Genbank accession number NM_181745), with 3000 cells per well.
The selected CHO-K1 GPR120 β-Arrestin cells were cultured in Ham's F12 media supplemented with 10% fetal bovine serum (FBS), 1% Glutamine, 1×p/s, 800 μg/mL G418 and 300 μg/mL Hygromycin B (for selection). Cell stocks were maintained and grown in a sub-confluent state using standard cell culture procedures. The day before the experiment, the cells were harvested with non-enzymatic cell dissociation buffer and re-suspended in complete growth media at the desired concentration. […] The seeded plates were incubated overnight at 37° C.
On the day of the experiment, the Assay Buffer containing (a) HBSS with Ca^++ and Mg^++, (b) 20 mM HEPES, and (c) 0.1% BSA stabilizer (pH 7.4) was prepared. The growth medium was gently removed from the cell plates and 20 μL of Assay Buffer added to each well. The plate was then incubated at 37° C. for 60 min. […] Five μL of compound dilution was then added to each well and the plate incubated at 37° C. for 90 min. The detection reagents were prepared according to the manufacture's instruction. Twelve μL of the detection reagents were added to each well and the plate incubated at room temperature for 60 min.
The % activity relative to the positive control was calculated using the following equation:
The Fitting Equation was: Y=Bottom+(Top-Bottom)/(1+10^((Log EC50−X)*HillSlope)), where X is the log of the concentration and Y is the response.

EC50 | Compound
97 nM | O=C(O)CCc1cc(F)c(OCc2sc(Cl)cc2-c2ccc(Cl)cc2)c(F)c1 [Cpd 2, 3-(4-{[5-Chloro-3-(4-chlorophenyl)thiophen-2-yl]methoxy}-3,5-difluorophenyl)propanoic acid]
431 nM | Cc1sc(-c2ccccc2)c(COc2ccc(CCC(=O)O)c(C)c2C)c1C(F)(F)F [Cpd 33, 3-(2,3-Dimethyl-4-{[5-methyl-2-phenyl-4-(trifluoromethyl)thiophen-3-yl]methoxy}phenyl)propanoic acid]
28 nM | OCCCc1cc(F)c(OCc2c(Cl)nsc2-c2ccc(Cl)cc2)c(F)c1 [Cpd 78, 3-(4-{[3-Chloro-5-(4-chlorophenyl)isothiazol-4-yl]methoxy}-3,5-difluorophenyl)propan-1-ol]
